Patent US20050004037A1, “Osteogenic growth oligopeptides as stimulants of hematopoiesis” (Yissum Research Development Company of the Hebrew …, priority 2001, published 2005)
Ends that are not written are not given here.

B1: G-CSF: granulocyte colony-stimulating factor, positive reference (protein, UniProt P09919 31-207, looked up)
Granulocyte …: TPLGPASSLPQSFLLKCLEQVRKIQGDGAALQEKLVSECATYKLCHPEELVLLGHSLGIPWAPLSSCPSQALQLAGCLSQLHSGLFLYQGLLQALEGISPELGPTLDTLQLDVADFATTIWQQMEELGMAPALQPTQGAMPAFASAFQRRAGGVLVASHLQSFLEVSYRVLRHLAQP

Legend:
[1] = Evaluation of OGP(10-14) toxicity after 15 days of subcutaneous administration; format: in vivo, mice; details: 10 nmol/mouse s.c., versus placebo-treated controls
Protocol: Fifty-five mice were evaluated for possible OGP(10-14)-related toxicity after 15 days of subcutaneous administration, at the dose of 10 nmol/mouse, and results were compared to those obtained in 30 placebo-treated controls.

[2] = test system: white blood cells, monocytes, immature cells; test: Total and differential blood cell counts after cyclophosphamide (CFA) chemoablation; format: in vivo, mice; details: CFA-induced aplasia
Protocol: FIGS. 2A-C—OGP(10-14) stimulates blood cell counts in dose and time dependent manner in mice undergoing chemoablation of hematopoietic tissues Male ICR mice weighing 25 gm each were subjected to chemoablation using cyclophosphamide (CFA), 5 mg/mouse, injected intraperitoneally on days 0 and 1, one injection each day. OGP(10-14) was dissolved in “sterile water for injection” and 0.1 ml of the indicated doses or water only (vehicle) was administered subcutaneously in the nape daily from day −7 to day −1 and from day +2 to day +8. Data are mean±SD obtained in 20 animals per condition. *: significant over CFA+vehicle, p<0.05; **: significant over 1 nmol OGP(10-14) group, p<0.05.
In this set of experiments bone marrow ablation was induced by an intraperitoneal injection of cyclophophamide (CFA, SIGMA, 5 mg/mouse in 150 (1 sterile PBS) for two consecutive days (designated “day 0” and “day 1”. This protocol has been demonstarted to induce severe, reversible leucopoena with L. D. <30 [Spangrude, G. J. et al, Science, 241:58 (1988)]. The lowest bone marrow cell counts were recorded six days after the first injection. […]

[3] = test system: CFU-GM, CFU-GEMM and BFU-E; test: Ex vivo progenitor cell (colony forming) assays on bone marrow of treated chemoablated mice; format: in vivo; details: bone marrow of CFA-ablated mice, 10 nmol/day s.c.
Protocol: Male ICR mice weighing 25 gm each were subjected to chemoablation using cyclophosphamide (CFA), 5 mg/mouse, injected intraperitoneally on days 0 and 1, one injection each day. OGP(10-14) was dissolved in “sterile water for injection” at 100 nmol/ml concentration and 0.1 ml of this solution or water only (vehicle) was administered subcutaneously in the nape daily for the indicated period(s). Bone marrow was harvested on day 9 and analyzed for colony forming units. Data are meam±SD obtained in 10 animals per condition.
To evaluate different dosing regimens of OGP(10-14), chemoablated mice were subjected to daily treatment with OGP(10-14), as outlined in FIG. 4. The mice were sacrificed on day +15, the femoral bone marrow was flushed and single cell suspensions (prepared as above) were subjected to ex vivo progenitor cell (colony forming) assays. The OGP(10-14) effect on the formation of CFU-GM, CFU-GEMM and BFU-E was compared to that of G-CSF (FIG. 4).
Bone marrow cells were recovered on day +10 after injection of CFA from all groups. Cells were diluted to 2×10^6/ml in Iscove's Modified Dulbecco Medium(IMFM) with 2% FBS and added to methylcellulose medium according to the manufacturer's recommendations (MethoCult, StemCell Technologies Inc., Vancouver, Canada). 2×10^4 cells were plated in each test. Both M3434 (for murine GM-CFU, and GEMM-CFU) and M3334 for (murine BFU-E assay) were used. M3434 was supplemented with recombinant murine interleukine-3 (rmIL-3, 10 ng/ml), recombinant human interleukine-6 (rhIL-6, 10 ng/ml), recombinant murine stem cell factor (rmSCF, 50 ng/ml) and recombinant human erythropoietin (rhEpo, 3 U/ml). […] the only factor included was Epo. Duplicate tests for each mouse were blindly examined after 14 days of incubation according to the protocol procedures.

[4] = OGP(10-14) effect only where treatment began 7 days before chemoablation

Molecule | haematological parameters: number of WBC, RBC, PLT, Hb level [1] | survival, behaviour, body weight gain and gross examination [1] | toxicity at the employed doses [2] | CFU-GM [3] | BFU-E [3, 4] | CFU-GEMM [3, 4]
YGFGG [OGP(10-14), Tyr-Gly-Phe-Gly-Gly] | did not induce any significant modifications | No differences were found | without any valuable toxicity |  |  | 
B1 |  |  |  | had an effect | effect only on the CFU-GM | effect only on the CFU-GM
